Measured values published in patent US20180296537A1, “METHODS AND COMPOSITIONS FOR DIAGNOSING, TREATING, AND MONITORING TREATMENT OF SHANK3 DEFICIENCY ASSOCIATED DISORDERS” (Novartis AG, priority 2015, published 2018).
Where a SMILES comes first, the peptide text is derived from it. The star is where a group is joined. Cbz = O=C(OCc1ccccc1)*

Columns and labels:
[1] = tested on: CLK2; assay: Western blot of CLK2 protein expression in primary neurons; format: cell-based, rat
From the text: E18 primary rat cortical neurons were dissected, cultured and infected 6 days after plating (DIV6) with indicated lentiviruses at MOI 10, as previously described (Proenca et al., 2013). Lentiviruses were produced by calcium phosphate transfection of HEK293T cells with packaging plasmids (Life Technologies) and transfer plasmid in 10 cm dishes. Cells were transferred to fresh medium 6 hrs. post-transfection. Four days post-transfection, the cell medium was collected and pooled from several dishes, cleared of cellular debris by 0.45 μm filtration, and concentrated 100× by centrifugation at 19,000 g for 90 min in a Beckman Ultracentrifuge using a SW28/SW32 rotor. Pellets were suspended in PBS/0.5% BSA and viral titer was determined by ELISA quantification of viral p24 antigen (Zeptometrix Corp, USA). For shRNA plasmid generation, oligonucleotides were annealed and ligated into lentiviral transfer plasmid pLKO.1-GFP vector at the AgeI/EcoRI sites. The target sequences of shRNAs that target rat and mouse Shank3 (5′-3′) are: […] (SEQ ID NO: 1), […] (SEQ ID NO: 2), and […] (SEQ ID NO: 3). The latter was previously reported (Verpelli et al., 2011). A luciferase-targeting sequence was used as an shRNA control: […] (SEQ ID NO: 4).
For immunoprecipitation (IP) of HA-tagged Akt, neurons were lysed in IP buffer (20 mM Tris-HCl pH 7.4, 3 mM EDTA, 3 mM EGTA, 150 mM NaCl, 0.5% NP-40, and protease/phosphatase inhibitor cocktails (Roche)). Lysates were cleared by centrifugation at 13,000 rpm for 10 min and lysates normalized for protein abundance were immunoprecipitated with rabbit HA-tag antibody for 1 h at 4° C. Immuno-complexes were then captured by incubation for an additional 1 hr with Protein A agarose beads (Roche). Beads were washed three times with IP buffer and bound proteins were eluted with 2×SDS-PAGE sample buffer, then boiled for 5 min. […]

[2] = tested on: Akt; assay: Western blot of Akt phosphorylation in rat primary cortical neurons (Shank3 knock down vs control); format: cell-based; details: DIV 16
From the text: E18 primary rat cortical neurons were dissected, cultured and infected 6 days after plating (DIV6) with indicated lentiviruses at MOI 10, as previously described (Proenca et al., 2013). Lentiviruses were produced by calcium phosphate transfection of HEK293T cells with packaging plasmids (Life Technologies) and transfer plasmid in 10 cm dishes. Cells were transferred to fresh medium 6 hrs. post-transfection. Four days post-transfection, the cell medium was collected and pooled from several dishes, cleared of cellular debris by 0.45 μm filtration, and concentrated 100× by centrifugation at 19,000 g for 90 min in a Beckman Ultracentrifuge using a SW28/SW32 rotor. Pellets were suspended in PBS/0.5% BSA and viral titer was determined by ELISA quantification of viral p24 antigen (Zeptometrix Corp, USA). For shRNA plasmid generation, oligonucleotides were annealed and ligated into lentiviral transfer plasmid pLKO.1-GFP vector at the AgeI/EcoRI sites. The target sequences of shRNAs that target rat and mouse Shank3 (5′-3′) are: […] […] (SEQ ID NO: 2), and […] (SEQ ID NO: 3). The latter was previously reported (Verpelli et al., 2011). A luciferase-targeting sequence was used as an shRNA control: […] (SEQ ID NO: 4).
For immunoprecipitation (IP) of HA-tagged Akt, neurons were lysed in IP buffer (20 mM Tris-HCl pH 7.4, 3 mM EDTA, 3 mM EGTA, 150 mM NaCl, 0.5% NP-40, and protease/phosphatase inhibitor cocktails (Roche)). Lysates were cleared by centrifugation at 13,000 rpm for 10 min and lysates normalized for protein abundance were immunoprecipitated with rabbit HA-tag antibody for 1 h at 4° C. Immuno-complexes were then captured by incubation for an additional 1 hr with Protein A agarose beads (Roche). Beads were washed three times with IP buffer and bound proteins were eluted with 2×SDS-PAGE sample buffer, then boiled for 5 min. For IP and analysis of ubiquitinated Myc-Clk2, neurons were lysed in Ubiquitin IP buffer (20 mM Tris-HCl pH 7.4, 3 mM EDTA, 3 mM EGTA, 150 mM NaCl, 1% Triton X-100, protease/phosphatase inhibitor cocktails (Roche), 5 mM N-ethylmaleimide, and 3 mM iodoacetamide) containing 1% SDS. Lysates were boiled for 20 min to denature proteins and then centrifuged for 10 min at 13,000 rpm. Lysates were subsequently diluted to 0.1% SDS with Ubiquitin IP buffer and immunoprecipitated with Myc antibody for 1 h. Complexes were then captured by addition of Protein G agarose (Roche) and additional 1 h incubation. Beads were washed 3× and eluted with 2×SDS-PAGE sample buffer, then boiled for 5 min. Samples prepared for SDS-PAGE were then resolved on 4-12% Novex gels (Life Technologies), transferred to PVDF membranes, blocked in 5% low-fat milk in TBS/0.1% Tween-20, and incubated overnight with primary antibodies. After washing and 1 h incubation with secondary antibodies, proteins were visualized by Chemiluminescent detection (Amersham-GE Healthcare Life Sciences).
To determine whether Shank3 deficiency impacts the PI3K-Akt-mTOR signaling pathway (FIG. 1A, gray highlight), lentiviral-mediated delivery of shRNAs was used to knock-down Shank3 in rat primary cortical neuron cultures. Cultured rat primary cortical neurons were transduced with lentiviruses encoding control shRNA or Shank3-shRNA at six days in vitro (DIV 6) and treated with BDNF (50 ng/ml) for 15 or 30 min at 14-16 days in vitro (DIV 14-16). Cell lysates were prepared in RIPA buffer prior to resolution by SDS-PAGE and Western blotting.
Cortical neurons, transduced with shRNA-expressing lentiviruses on DIV 6, were treated with 50 ng/ml BDNF or okadaic acid (100 nM) on DIV 16 and cell lysates were resolved by SDS-PAGE, followed by Western blotting.

[3] = tested on: CA1 pyramidal neurons; assay: Dendritic spine density in hippocampal organotypic slice cultures; format: cell-based, mouse
Protocol: Wilde type (C57B1/6) mice were housed in a temperature-controlled room and maintained on a 12 hr light/dark cycle. Food and water were available ad libitum and experiments were carried out in accordance with the local authorization guidelines for the care and use of laboratory animals. Slice cultures were established according to the procedure described by Stoppini and colleagues (Galimberti et al., 2006; Stoppini et al., 1991). […] For organotypic slice cultures, brains of P6-P9 transgenic mice were dissected in cold MEM (GIBCO) medium, and hippocampal coronal sections of 400 μm were obtained with a tissue chopper (McIlwain). Slices were selected, placed on Millicell (Millipore, PICM03050) and cultured in 6-well dishes at 35° C. and 5% CO2 in the presence of 1 ml of medium. The entire slice isolation procedure took about 30 min. The culture medium was exchanged every third day. Treatments were performed in fresh culture medium for the indicated time periods.
Brain slices were transfected with plasmids encoding shCont, and shShank3 using helios gene gun system (Bio-Rad Laboratories, #165-2431) as previously described (Proenca et al., 2013). Subsequently, slices were fixed, stained, mounted, and analyzed following the protocols described below in the immunohistochemistry and microscopy paragraphs.
Slices were fixed for 10 minutes in 4% PFA, washed in PBS and blocked for 4 hr at room temperature in 0.3% Triton X-100 20% Horse Serum/PBS (blocking solution). GFP primary antibody was incubated for 24 hr at 4° C. in the blocking solution. Afterwards, slices were washed in PBS, incubated for 2 hr in 0.3% Triton X-100/PBS with Alexa Fluor® 488 Donkey anti-chicken secondary antibody (Life technologies). Finally, slices were washed in PBS, incubated 10 minutes with DAPI (Life technologies) and mounted on glass slides using ProLong mountant (Life technologies).
High resolution images were acquired on an upright Zeiss LSM700 confocal microscope, using a Plan-Neofluar 100×/1.3 oil immersion objective. For the analysis of dendritic spine density, confocal 3D stacks were acquired in CA1 region for each experiment. To quantify spine density, a stretch of approximately 30 μm was selected on secondary dendrites originating at the branch point from the primary dendrite. Only secondary dendrites were considered to reduce variability. Dendritic length was measured using the ImageJ plugin, Simple Neurite tracer, and spine density manually counted using the Cell Counter plugin.
The above findings implicate CLK2 overexpression as a specific anomaly that is causative for attenuated Akt activity in neurons deficient for Shank3. Consequently, inhibiting CLK2 activity or directly activating Akt would restore neuronal impairments associated with Shank3 loss of function. First, a small-molecule Akt-activator, SC79, was tested for its ability to restore Akt phosphorylation (FIG. 5A). SC79 binds directly to Akt to facilitate an ‘open’ conformation of the protein that is accessible to upstream activating kinases (eg. PDK1). This obviates the need for PtdIns(3,4,5)P3 (PIP3) production and recruitment of Akt to the plasma membrane (Rodgers, Cell Metab. 11, 23-34, 2010). […] Decreased principal neuron dendritic spine density has frequently been observed in Shank3 loss of function models (Durand et al., 2007, Nature Genetics 39: 25-27; Peca et al., 2011, Nature 472: 437-442; Verpelli et al., 2011, The Journal of Biological Chemistry 286: 34839-34850). Knock-down of Shank3 in hippocampal organotypic slice cultures, via biolistic transfection of shRNA vectors, faithfully recapitulated this phenotype in CA1 pyramidal neurons, whereby a two-fold reduction in apical dendrite spine density resulted (FIG. 6A). […]

[4] = tested on: PMDS patients; details: pilot studies; cited from earlier work
[5] = tested on: Shank3 knock-out mice; details: cited from earlier work
[6] = tested on: PMDS neurons; details: cited from earlier work

## CC(C)C[C@@H](C=O)NC(=O)[C@H](CC(C)C)NC(=O)[C@H](CC(C)C)NC(=O)OCc1ccccc1 [MG132] (Cbz-Leu-Leu-Leu-aldehyde)
[1]; control cells, 2.5 or 20 μM MG132, 30 minutes
  CLK2 protein level: rapid increase of CLK2 in control cells

## wild type B56β: Flag-tagged wild type B56β regulatory subunit of PP2A, expressed by lentiviral transduction
[2]; Shank3 knock down neurons, lentiviral co-expression of Flag-tagged B56β, 50 ng/ml BDNF
  Akt phosphorylation: had no effect

## IGF-1: insulin-like growth factor-1
[3]; Shank3 knockdown neurons, 1 μg/ml IGF-1 24 h, with or without 10 μM Akti, fixed DIV 14
  dendritic spine density: restored normal dendritic spine density to Shank3 knockdown neurons, in an Akt-dependent manner
[4]
  motor, cognitive and social impairments: beneficial
[5]
  synaptic and motor deficits: alleviated synaptic and motor deficits in Shank3 knock-out mice
[6]
  synaptic impairment: alleviated

## O=c1[nH]c2ccccc2n1C1CCN(Cc2ccc(-c3nc4cc5[nH]cnc5cc4nc3-c3ccccc3)cc2)CC1 [Akti]
[3]; Shank3 knock down neurons, 10 μM Akti included in TG003 treatment
  effect of TG003 on spine density with Akt inhibitor: blocked
[3]; Thy1-mGFP transfected slice cultures, 10 μM Akti 24 h, fixed DIV14
  dendritic spine density: sufficient to reduce dendritic spine density

## insulin: insulin
[4]
  motor, cognitive and social impairments: beneficial

## C=C1[C@@H](O)[C@@H]2O[C@]3(CC[C@H](/C=C/[C@@H](C)[C@@H]4CC(C)=C[C@@]5(O[C@H](C[C@@](C)(O)C(=O)O)CC[C@H]5O)O4)O3)CC[C@H]2O[C@@H]1[C@@H](O)C[C@H](C)[C@H]1O[C@@]2(CCCCO2)CC[C@H]1C [okadaic acid]
[2]; okadaic acid 100 nM
  increase of Akt T308 phosphorylation in Shank3 knock down neurons versus increase in control neurons: two-fold greater
[2]; okadaic acid 100 nM, alone or with 50 ng/ml BDNF, control and Shank3 knock down neurons
  Akt T308 phosphorylation: enhanced Akt T308 phosphorylation in both control and Shank3 knock down neurons

B1: BDNF: brain derived neurotrophic factor (protein, UniProt P23560 19-247, looked up)
Neurotrophic factor BDNF …: APMKEANIRGQGGLAYPGVRTHGTLESVNGPKAGSRGLTSLADTFEHVIEELLDEDQKVRPNEENNKDADLYTSRVMLSSQVPLEPPLLFLLEEYKNYLDAANMSMRVRRHSDPARRGELSVCDSISEWVTAADKKTAVDMSGGTVTVLEKVPVSKGQLKQYFYETKCNPMGYTKEGCRGIDKRHWNSQCRTTQSYVRALTMDSKKRIGWRFIRIDTSCVCTLTIKRGR
[1]; Shank3 knock down neurons, BDNF treatment
  CLK2 protein level: elicited no significant further increase of CLK2 levels
[1]; control neurons, BDNF 30 minutes
  CLK2 protein level: induced the accumulation of CLK2 in control neurons
